From publication PMC8148004, “Distinction between 2′- and 3′-Phosphate Isomers of a Fluorescent NADPH Analogue Led to Strong Inhibition of Cancer Cells Migration” (Antioxidants, 2021)

Assays:
[1] = target: T1, NOX2 C-terminal (gp91phox) (Homo sapiens, UniProt P04839); assay: fluorescence enhancement titration of the ligand with recombinant protein; also decreased NADPH consumption; type: binding
T1 construct: gene CYBB; C-terminal (cytosolic part), residues 300–580, His-tagged, E. coli
T1 sequence (P04839 300-570): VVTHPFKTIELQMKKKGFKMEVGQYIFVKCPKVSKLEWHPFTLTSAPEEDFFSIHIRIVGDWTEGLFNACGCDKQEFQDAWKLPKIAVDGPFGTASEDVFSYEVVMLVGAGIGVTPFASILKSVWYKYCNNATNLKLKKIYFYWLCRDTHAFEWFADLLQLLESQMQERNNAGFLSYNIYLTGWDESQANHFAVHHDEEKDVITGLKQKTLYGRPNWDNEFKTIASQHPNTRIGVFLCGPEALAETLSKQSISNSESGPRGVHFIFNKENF

eNOS = target: T2, eNOS (Bos taurus, UniProt P29473); assay: oxyhemoglobin assay for NO formation; type: biochemical
T2 construct: gene NOS3; full length recombinant bovine eNOS, E. coli BL21 (DE3); with calmodulin
T2 sequence (P29473 2-1205): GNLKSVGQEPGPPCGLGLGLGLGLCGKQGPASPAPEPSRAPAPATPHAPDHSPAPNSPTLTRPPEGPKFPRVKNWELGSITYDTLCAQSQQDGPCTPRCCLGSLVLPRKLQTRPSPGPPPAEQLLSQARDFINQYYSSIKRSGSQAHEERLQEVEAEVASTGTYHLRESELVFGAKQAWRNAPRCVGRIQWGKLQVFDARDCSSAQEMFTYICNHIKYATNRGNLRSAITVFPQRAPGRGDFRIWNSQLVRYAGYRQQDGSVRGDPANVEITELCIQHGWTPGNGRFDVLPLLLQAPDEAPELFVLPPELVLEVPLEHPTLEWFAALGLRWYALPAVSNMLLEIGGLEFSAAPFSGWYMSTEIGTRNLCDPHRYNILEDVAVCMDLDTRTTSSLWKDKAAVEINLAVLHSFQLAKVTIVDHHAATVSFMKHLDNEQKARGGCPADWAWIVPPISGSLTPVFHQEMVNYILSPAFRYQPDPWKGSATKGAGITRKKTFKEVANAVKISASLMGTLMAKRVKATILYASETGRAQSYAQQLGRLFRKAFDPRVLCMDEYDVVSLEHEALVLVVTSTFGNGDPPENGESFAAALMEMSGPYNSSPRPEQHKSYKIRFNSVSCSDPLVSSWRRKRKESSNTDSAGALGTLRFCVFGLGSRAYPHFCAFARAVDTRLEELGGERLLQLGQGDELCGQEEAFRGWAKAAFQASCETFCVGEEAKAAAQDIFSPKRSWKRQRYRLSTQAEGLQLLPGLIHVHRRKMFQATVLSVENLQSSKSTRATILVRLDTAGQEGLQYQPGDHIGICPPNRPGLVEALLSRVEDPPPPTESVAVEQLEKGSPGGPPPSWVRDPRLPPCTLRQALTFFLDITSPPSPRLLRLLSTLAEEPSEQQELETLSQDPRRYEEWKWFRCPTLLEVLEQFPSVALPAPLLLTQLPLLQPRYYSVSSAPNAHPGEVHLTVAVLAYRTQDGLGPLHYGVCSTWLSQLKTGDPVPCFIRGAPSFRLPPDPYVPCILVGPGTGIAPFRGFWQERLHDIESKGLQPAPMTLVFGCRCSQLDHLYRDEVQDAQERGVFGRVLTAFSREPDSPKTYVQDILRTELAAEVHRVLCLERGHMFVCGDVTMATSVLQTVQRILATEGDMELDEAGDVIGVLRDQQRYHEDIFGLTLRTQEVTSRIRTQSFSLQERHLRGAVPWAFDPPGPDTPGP

[2] = target: T1, NOX2 C-terminal (gp91phox); assay: fluorescence enhancement titration of the ligand with recombinant protein; type: binding

Kd [1] [nM]	IC50 (eNOS) [nM]	Kd [2] [nM]	SMILES
670 ± 110	~30000		CCN(CCNC(=O)[C@H]1O[C@@H](n2cnc3c(N)ncnc32)[C@H](OP(=O)(O)O)[C@@H]1O)c1ccc(/C=C/c2ccc([N+](=O)[O-])cc2)cc1 [NS1-2]
		1140 ± 90	CCN(CCNC(=O)[C@H]1O[C@@H](n2cnc3c(N)ncnc32)[C@H](O)[C@@H]1OP(=O)(O)O)c1ccc(/C=C/c2ccc([N+](=O)[O-])cc2)cc1 [NS1-3]
